# Compound: Cc1cnc(CNC(=O)c2c(=O)c3ccc(N4CCCN(C)CC4)nc3n3c2sc2ccccc23)cn1 [CX-5461] + C[C@@H](Oc1cc(-c2cnn(C3CCNCC3)c2)cnc1N)c1c(Cl)ccc(F)c1Cl [Crizotinib] (partner 1 µM)
# Assay: relative viability (nuclei count vs DMSO), 5 days (fraction); higher = more cells survive
# Settings: first compound 0.1 µM
# Summary of the method: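 Lung cancer cell lines were pin-tool dosed in 1536-well plates on the day after seeding, with either a lone drug or a fixed anchor-drug dose plus five library-drug doses (not always all listed) in √10 steps. Nuclei were counted on 4× images after 5 days. Relative viability is the ratio of treated-well to vehicle-well nuclei counts, with each value a median of duplicate plates.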
row,Cell Line,relative viability
1,LK-2,0.214
2,H3255,0.883
3,COR-L23,0.482
4,COR-L 105,0.861
5,IA-LM,0.821
6,LOU-NH91,0.745
7,ChaGo-K-1,1.06
8,NCI-H358,0.365
9,NCI-H2405,0.843
10,HOP-62,0.858
11,HCC-44,0.823
12,A549,0.357
13,NCI-H441,0.867
14,NCI-H1299,0.991
15,NCI-H2170,1.28

# Same assay, conditions: first compound 0.3162 µM
row,Cell Line,relative viability
1,NCI-H727,0.767
2,NCI-H1650,0.948
3,EBC-1,0.215
4,NCI-H1703,0.663
5,NCI-H1993,0.822
6,SK-LU-1,0.891
7,NCI-H838,0.347
8,LCLC-103H,1.04
9,NCI-H520,0.336
10,NCI-H2126,1.07
11,EMC-BAC-2,0.541
12,NCI-H2085,0.785
13,Calu-6,0.723
14,HCC-366,0.252
15,NCI-H1666,1
16,NCI-H596,1.19

row,Cell Line,relative viability
1,NCI-H2087,0.813
2,H3255,0.268
3,COR-L23,0.602
4,COR-L 105,0.745
5,IA-LM,0.836
6,LOU-NH91,0.728
7,ChaGo-K-1,0.341
8,NCI-H358,0.26
9,NCI-H2405,0.549
10,HOP-62,0.624
11,HCC-44,0.782
12,A549,0.655
13,NCI-H441,0.673
14,NCI-H1299,0.959
15,NCI-H2170,1.18

# Same assay, conditions: first compound 1 µM
row,Cell Line,relative viability
1,NCI-H727,0.703
2,NCI-H1650,0.149
3,EBC-1,0.156
4,NCI-H1703,0.343
5,NCI-H1993,0.825
6,SK-LU-1,0.51
7,NCI-H838,0.641
8,LCLC-103H,1.08
9,NCI-H520,0.531
10,NCI-H2126,0.975
11,EMC-BAC-2,0.74
12,NCI-H2085,0.555
13,Calu-6,0.289
14,HCC-366,0.48
15,NCI-H1666,0.618
16,NCI-H596,0.907

row,Cell Line,relative viability
1,NCI-H2087,0.593
2,LK-2,0.239
3,H3255,0.662
4,COR-L23,0.256
5,COR-L 105,0.325
6,IA-LM,0.33
7,LOU-NH91,0.759
8,ChaGo-K-1,0.79
9,NCI-H358,0.174
10,NCI-H2405,0.821
11,HOP-62,1.09
12,HCC-44,0.801
13,A549,0.0561
14,NCI-H441,0.509
15,NCI-H1299,0.863
16,NCI-H2170,1.09

# — the supplement of paper PMC10307832
